Several values for one entry are separate records, joined by “and”; a condition that tells them apart may be missing. Equal values may be shown once.
Assay: Pharmacokinetic analysis of plasma after intravenous and oral dosing
Settings: for concentration at 0.167 h / concentration at 0.5 h / concentration at 1 h / concentration at 2 h / concentration at 4 h / concentration at 7 h / concentration at 16 h: female, CD-1, mouse, plasma
Procedure: Samples were centrifuged at 15,000 rpm for 10 min, then blood plasma was collected from the upper layer and frozen at −80 °C until analysis. […] Sample processing, chromatographic separation, MS, and MS/MS parameters used for analysis were determined by the core. […] Standard curves for peak area ratio of compound to internal standard (Astd/AIstd) vs. compound concentration were used to determine sample analyte concentrations through linear regression with a weighting average of 1/X^2. […] All pharmacokinetic parameters were estimated using non-compartmental analysis with Phoenix/WINONLIN, and provided by the core along with calculated sample analyte concentrations. Data was generated from n ≥ 3 individual animals sampled per time point per compound for each method of dosing.

SMILES: O=C(O)c1ccc(F)c(F)c1Nc1ccc(I)cc1F [PD315209, reference compound]
- Concentration (Supplementary Figure 6a, i.v., Time 0.167 h, individual replicates): 779 ng/mL and 846 ng/mL
- Concentration (Supplementary Figure 6a, i.v., Time 0.5 h, individual replicates): 677 ng/mL and 624 ng/mL
- Concentration (Supplementary Figure 6a, i.v., Time 1 h, individual replicates): 440 ng/mL and 492 ng/mL
- Concentration (Supplementary Figure 6a, i.v., Time 2 h, individual replicates): 490 ng/mL and 355 ng/mL
- Concentration (Supplementary Figure 6a, i.v., Time 4 h, individual replicates): 243 ng/mL and 164 ng/mL
- Concentration (Supplementary Figure 6a, i.v., Time 7 h, individual replicates): 72.7 ng/mL and 57.8 ng/mL
- Concentration (Supplementary Figure 6a, i.v., Time 16 h, individual replicates): 4.08 ng/mL
- Concentration (Supplementary Figure 6a, i.v., Time 24 h, individual replicates): 5.08 ng/mL and 1.82 ng/mL and 2.98 ng/mL
- Concentration (Supplementary Figure 6a, p.o., Time 0.167 h, individual replicates): 507 ng/mL and 993 ng/mL and 283 ng/mL
- Concentration (Supplementary Figure 6a, p.o., Time 0.5 h, individual replicates): 891 ng/mL and 764 ng/mL
- Concentration (Supplementary Figure 6a, p.o., Time 1 h, individual replicates): 1540 ng/mL and 1240 ng/mL
- Concentration (Supplementary Figure 6a, p.o., Time 2 h, individual replicates): 490 ng/mL and 399 ng/mL
- Concentration (Supplementary Figure 6a, p.o., Time 4 h, individual replicates): 412 ng/mL and 334 ng/mL
- Concentration (Supplementary Figure 6a, p.o., Time 7 h, individual replicates): 463 ng/mL and 555 ng/mL
- Concentration (Supplementary Figure 6a, p.o., Time 16 h, individual replicates): 362 ng/mL and 491 ng/mL
- Concentration (Supplementary Figure 6a, p.o., Time 24 h, individual replicates): 443 ng/mL and 223 ng/mL and 212 ng/mL
- concentration at 0.167 h (iv, 15 mg kg^−1, Concentration, Supplementary Figure 6a, Time 0.167 h, individual replicates): 934 ng/mL
- concentration at 0.5 h (iv, 15 mg kg^−1, Concentration, Supplementary Figure 6a, Time 0.5 h, individual replicates): 923 ng/mL
- concentration at 1 h (iv, 15 mg kg^−1, Concentration, Supplementary Figure 6a, Time 1 h, individual replicates): 602 ng/mL
- concentration at 2 h (iv, 15 mg kg^−1, Concentration, Supplementary Figure 6a, Time 2 h, individual replicates): 572 ng/mL
- concentration at 4 h (iv, 15 mg kg^−1, Concentration, Supplementary Figure 6a, Time 4 h, individual replicates): 282 ng/mL
- concentration at 7 h (iv, 15 mg kg^−1, Concentration, Supplementary Figure 6a, Time 7 h, individual replicates): 99.2 ng/mL
- concentration at 16 h (iv, 15 mg kg^−1, Concentration, Supplementary Figure 6a, Time 16 h, individual replicates): 7.87 ng/mL
- concentration at 0.167 h (iv, 15 mg kg^−1, Concentration, Time 0.167 h, individual animals, Supplementary Figure 12a): 306 ng/mL
- concentration at 0.167 h (iv, 15 mg kg^−1, Concentration, Time 0.167 h, individual animals, Supplementary Figure 12b): 641 ng/mL
- concentration at 0.5 h (iv, 15 mg kg^−1, Concentration, Time 0.5 h, individual animals, Supplementary Figure 12a): 175 ng/mL
- concentration at 0.5 h (iv, 15 mg kg^−1, Concentration, Time 0.5 h, individual animals, Supplementary Figure 12b): 938 ng/mL
- concentration at 1 h (iv, 15 mg kg^−1, Concentration, Time 1 h, individual animals, Supplementary Figure 12a): 146 ng/mL
- concentration at 1 h (iv, 15 mg kg^−1, Concentration, Time 1 h, individual animals, Supplementary Figure 12b): 783 ng/mL
- concentration at 2 h (iv, 15 mg kg^−1, Concentration, Time 2 h, individual animals, Supplementary Figure 12a): 86.8 ng/mL
- concentration at 2 h (iv, 15 mg kg^−1, Concentration, Time 2 h, individual animals, Supplementary Figure 12b): 510 ng/mL
- concentration at 4 h (iv, 15 mg kg^−1, Concentration, Time 4 h, individual animals, Supplementary Figure 12b): 322 ng/mL
- concentration at 7 h (iv, 15 mg kg^−1, Concentration, Time 7 h, individual animals, Supplementary Figure 12a): 22.8 ng/mL
- concentration at 0.167 h (po, 200 mg kg^−1, Concentration, Time 0.167 h, individual animals, Supplementary Figure 12a): 155 ng/mL
- concentration at 0.5 h (po, 200 mg kg^−1, Concentration, Time 0.5 h, individual animals, Supplementary Figure 12a): 968 ng/mL
- concentration at 0.5 h (po, 200 mg kg^−1, Concentration, Time 0.5 h, individual animals, Supplementary Figure 12b): 692 ng/mL
- concentration at 1 h (po, 200 mg kg^−1, Concentration, Time 1 h, individual animals, Supplementary Figure 12b): 841 ng/mL
- concentration at 2 h (po, 200 mg kg^−1, Concentration, Time 2 h, individual animals, Supplementary Figure 12a): 2500 ng/mL
- concentration at 4 h (po, 200 mg kg^−1, Concentration, Time 4 h, individual animals, Supplementary Figure 12a): 3420 ng/mL
- concentration at 7 h (po, 200 mg kg^−1, Concentration, Time 7 h, individual animals, Supplementary Figure 12a): 1870 ng/mL
- concentration at 7 h (po, 200 mg kg^−1, Concentration, Time 7 h, individual animals, Supplementary Figure 12b): 1070 ng/mL
- concentration at 16 h (po, 200 mg kg^−1, Concentration, Time 16 h, individual animals, Supplementary Figure 12b): 2410 ng/mL
- concentration at 0.5 h (po, 400 mg kg^−1, Concentration, Supplementary Figure 6a, Time 0.5 h, individual replicates): 644 ng/mL
- concentration at 1 h (po, 400 mg kg^−1, Concentration, Supplementary Figure 6a, Time 1 h, individual replicates): 1700 ng/mL
- concentration at 2 h (po, 400 mg kg^−1, Concentration, Supplementary Figure 6a, Time 2 h, individual replicates): 787 ng/mL
- concentration at 4 h (po, 400 mg kg^−1, Concentration, Supplementary Figure 6a, Time 4 h, individual replicates): 398 ng/mL
- concentration at 7 h (po, 400 mg kg^−1, Concentration, Supplementary Figure 6a, Time 7 h, individual replicates): 473 ng/mL
- concentration at 16 h (po, 400 mg kg^−1, Concentration, Supplementary Figure 6a, Time 16 h, individual replicates): 572 ng/mL
- Concentration (i.v., Time 0.167 h, individual animals, Supplementary Figure 12a): 324 ng/mL and 426 ng/mL
- Concentration (i.v., Time 0.5 h, individual animals, Supplementary Figure 12a): 148 ng/mL and 180 ng/mL
- Concentration (i.v., Time 1 h, individual animals, Supplementary Figure 12a): 168.8 ng/mL and 187.8 ng/mL
- Concentration (i.v., Time 1 h, individual animals, Supplementary Figure 12b): 1480 ng/mL and 1110 ng/mL
- Concentration (i.v., Time 2 h, individual animals, Supplementary Figure 12a): 50 ng/mL and 64 ng/mL
- Concentration (i.v., Time 2 h, individual animals, Supplementary Figure 12b): 498 ng/mL and 604 ng/mL
- Concentration (i.v., Time 4 h, individual animals, Supplementary Figure 12a): 45.8 ng/mL and 21 ng/mL and 26 ng/mL
- Concentration (i.v., Time 4 h, individual animals, Supplementary Figure 12b): 244 ng/mL and 464 ng/mL
- Concentration (i.v., Time 7 h, individual animals, Supplementary Figure 12a): 12.78 ng/mL
- Concentration (i.v., Time 7 h, individual animals, Supplementary Figure 12b): 206 ng/mL and 134 ng/mL and 272 ng/mL
- Concentration (i.v., Time 16 h, individual animals, Supplementary Figure 12b): 25.9 ng/mL and 66.9 ng/mL and 61.2 ng/mL
- Concentration (i.v., Time 24 h, individual animals, Supplementary Figure 12b): 6.26 ng/mL and 32.6 ng/mL and 25 ng/mL
- Concentration (p.o., Time 0.167 h, individual animals, Supplementary Figure 12a): 145.8 ng/mL and 107.6 ng/mL and 206 ng/mL and 132.6 ng/mL and 193 ng/mL
- Concentration (p.o., Time 0.167 h, individual animals, Supplementary Figure 12b): 181 ng/mL
- Concentration (p.o., Time 0.5 h, individual animals, Supplementary Figure 12a): 788 ng/mL and 600 ng/mL
- Concentration (p.o., Time 1 h, individual animals, Supplementary Figure 12a): 1006 ng/mL and 784 ng/mL and 260 ng/mL and 1464 ng/mL and 1172 ng/mL and 1344 ng/mL
- Concentration (p.o., Time 2 h, individual animals, Supplementary Figure 12a): 2100 ng/mL and 1302 ng/mL
- Concentration (p.o., Time 4 h, individual animals, Supplementary Figure 12a): 2980 ng/mL and 1762 ng/mL
- Concentration (p.o., Time 7 h, individual animals, Supplementary Figure 12a): 1768 ng/mL and 1234 ng/mL
- Concentration (p.o., Time 16 h, individual animals, Supplementary Figure 12a): 414 ng/mL and 996 ng/mL and 1288 ng/mL
- Concentration (p.o., Time 24 h, individual animals, Supplementary Figure 12a): 996 ng/mL and 508 ng/mL and 280 ng/mL
